This passage reports MIC results from patent US4684639A, “Antibacterial penicillins and cephalosporins” (Beecham Group, priority 1983, dated 1987).

Usually MIC stands for the lowest concentration that inhibits growth of the organism.

Molecules are shown by their SMILES. Structures can show the parent of a compound that is named as a salt.

The subject of one assay is Proteus mirabilis 889. Kind of assay: MIC against Proteus mirabilis 889. In kind it is cell-based.
Conditions: not given
The source says: (§1) The antibiotic compounds of the present invention are active against a wide range of gram negative and gram positive organisms including E. coli such as, for example ESS, JT4, JT425 and NCTC 10418; Pseudomonas Spp. such as Ps.aeruginosa for example 10622 and Dalgleish; Serratia marcescens US32; Klebsiella aerogenes A; Enterobacter cloacae N1; P.mirabilis such as, for example C977 and 889; P.morganii, P.rettgeri; B.subtilis; Staph. aureus such as, for example Oxford and Russell; N.catarrhalis 1502; Strep faecalis I; β-Haemolytic Strep CN10. The MIC data included in the following examples is representative of the activity of the compounds of the present invention.
As for `CCN1CCN(C(=O)NC(C(=O)N[C@]2(OC)C(=O)N3[C@@H](C(=O)O)C(C)(C)S[C@@H]32)c2cc(OC(C)=O)c(OC(C)=O)cc2Cl)C(=O)C1=O` (stereo partly drawn) [Example 4, Sodium 6,β-[D,L-2-(2-chloro-4,5-diacetoxyphenyl)-2-(2,3-dioxo-4-ethylpiperazin-1-ylcarbonylamino)acetamido]-6,α-methoxypenicillanate], inhibition of growth (MIC) required 4 µg/mL.
Consider `CCN1CCN(C(=O)NC(C(=O)N[C@]2(NC=O)C(=O)N3[C@@H](C(=O)O)C(C)(C)S[C@@H]32)c2cc(OC(C)=O)c(OC(C)=O)cc2Cl)C(=O)C1=O` (stereo partly drawn) [Example 5, Sodium 6,β-[D,L-2-(2-chloro-4,5-diacetoxyphenyl)-2-(2,3-dioxo-4-ethylpiperazin-1-ylcarbonylamino)acetamido]-6,α-formamidopenicillanate], for which the MIC is < 0.06 µg/mL.
As for `CCN1CCN(C(=O)N[C@@H](C(=O)N[C@]2(NC=O)C(=O)N3[C@@H](C(=O)O)C(C)(C)S[C@@H]32)c2cc(OC(C)=O)c(OC(C)=O)cc2Cl)C(=O)C1=O` [Example 6], the MIC is < 0.06 µg/mL.
On the same count and under the same terms, the same measure for `CCN1CCN(C(=O)N[C@@H](C(=O)N[C@]2(NC=O)C(=O)N3[C@@H](C(=O)O)C(C)(C)S[C@@H]32)c2cc(OC(C)=O)c(OC(C)=O)cc2F)C(=O)C1=O` [Example 8, Sodium 6,β-[D-2-(4,5-diacetoxy-2-fluorophenyl)-2-(2,3-dioxo-4-ethylpiperazin-1-ylcarbonylamino)acetamido]-6,α-formamidopenicillanate]: < 0.06 µg/mL; for `CCN1CCN(C(=O)N[C@@H](C(=O)N[C@]2(NC=O)C(=O)N3C(C(=O)O)=C(COC(C)=O)CS[C@@H]32)c2cc(OC(C)=O)c(OC(C)=O)cc2Cl)C(=O)C1=O` [Example 14, 7β-[D-2-(2-chloro-4,5-diacetoxyphenyl)-2-[(4-ethyl-2,3-dioxopiperazin-1-yl)carbonylamino]acetamido]-7α-formamidocephalosporanate, sodium salt]: < 0.06 µg/mL; for `CCN1CCN(C(=O)N[C@@H](C(=O)N[C@]2(NC=O)C(=O)N3C(C(=O)O)=C(CSc4nnnn4C)CS[C@@H]32)c2cc(OC(C)=O)c(OC(C)=O)cc2Cl)C(=O)C1=O` [Example 15, 7β-[D-2-(2-Chloro-4,5-diacetoxyphenyl)-2-[(4-ethyl-2,3-dioxopiperazin-1-yl)carbonylamino]acetamido]-7α-formamido-3-[(1-methyl-1H-tetrazol-5-yl)thiomethyl]ceph-3-em-4-carboxylic acid, sodium salt]: 0.06 µg/mL.
On the same count and under the same terms, the value for `CCN1CCN(C(=O)N[C@@H](C(=O)N[C@]2(NC=O)C(=O)N3[C@@H](C(=O)O)C(C)(C)S[C@@H]32)c2cc(O)c(O)cc2F)C(=O)C1=O` [Example 16, Sodium 6,β-[D-2-(4,5-dihydroxy-2-fluorophenyl)-2-(2,3-dioxo-4-ethylpiperazin-1-ylcarbonylamino)acetamido]-6,α-formamidopenicillanate] was 0.25 µg/mL.

Another assay deals with P. mirabilis 899. Kind of assay: MIC against P. mirabilis 899. The format is cell-based. To be noted: Proteus mirabilis.
Description: as §1
As to `CCN1CCN(C(=O)N[C@@H](C(=O)N[C@]2(NC=O)C(=O)N3C(C(=O)O)=C(COC(C)=O)CS[C@@H]32)c2cc(OC(C)=O)c(OC(C)=O)cc2Br)C(=O)C1=O` [Example 13, 7β[D-2-(2-Bromo-4,5-diacetoxyphenyl)-2-[(4-ethyl-2,3-dioxopiperazin-1-yl)carbonylamino]acetamido]-7α-formamidocephalosporanate, sodium salt], 0.25 µg/mL was the least that counted as inhibitory (MIC).
On the same count and under the same terms, the same measure for `CCN1CCN(C(=O)N[C@@H](C(=O)N[C@]2(NC=O)C(=O)N3C(C(=O)O)=C(COC(C)=O)CS[C@@H]32)c2cc(OC(C)=O)c(OC(C)=O)cc2F)C(=O)C1=O` [Example 17, 7β[D-2-(4,5-Diacetoxy-2-fluorophenyl)-2-[(4-ethyl-2,3-dioxopiperazin-1-yl)carbonylamino]acetamido]-7α-formamidocephalosporanate, sodium salt]: 0.5 µg/mL.

The subject of a further assay is Klebsiella aerogenes A. Kind of assay: MIC against Klebsiella aerogenes A.
Conditions: not given
In kind it is cell-based.
Description: as §1
As for `CCN1CCN(C(=O)NC(C(=O)N[C@@H]2C(=O)N3[C@@H]2SC(C)(C)[C@@H]3C(=O)O)c2cc(O)c(O)cc2Cl)C(=O)C1=O` (stereo partly drawn) [Example 1, Sodium 6,β-[D,L-2-(2-chloro-4,5-dihydroxyphenyl)-2-(2,3-dioxo-4-ethylpiperazin-1-ylcarbonylamino)acetamido penicillanate], the MIC is < 0.06 µg/mL.
Still for that read-out and setting: the value for `CCN1CCN(C(=O)NC(C(=O)N[C@@H]2C(=O)N3[C@@H](C(=O)O)CS[C@H]23)c2cc(OC(C)=O)c(OC(C)=O)cc2Cl)C(=O)C1=O` (stereo partly drawn) [Example 2, Sodium 6,β[D,L-2-(2-chloro-4,5-diacetoxyphenyl)-2-(2,3-dioxo-4-ethylpiperazin-1-ylcarbonylamino)acetamido]bisnorpeniclllanate] was < 0.06 µg/mL; that for `CCN1CCN(C(=O)NC(C(=O)N[C@@H]2C(=O)N3[C@@H]2SC(C)(C)[C@@H]3C(=O)O)c2cc(OC(C)=O)c(OC(C)=O)cc2F)C(=O)C1=O` (stereo partly drawn) [Example 7, Sodium 6,β-[D,L-2-(4,5-diacetoxy-2-fluorophenyl)-2-(2,3-dioxo-4-ethylpiperazin-1-ylcarbonylamino)acetamido]penicillanate] was 0.5 µg/mL.
On the same count and under the same terms, the value for `CCN1CCN(C(=O)N[C@@H](C(=O)N[C@@H]2C(=O)N3[C@@H]2SC(C)(C)[C@@H]3C(=O)O)c2cc(OC(C)=O)c(OC(C)=O)cc2Cl)C(=O)C1=O` [Example 9, Sodium 6,β-[D-2-(2-chloro-4,5-diacetoxyphenyl)-2-(2,3-dioxo-4-ethylpiperazin-1-ylcarbonylamino)acetamido]penicillanate] was 0.25 µg/mL; that for `CCN1CCN(C(=O)NC(C(=O)N[C@@H]2C(=O)N3[C@@H]2SC(C)(C)[C@@H]3C(=O)O)c2cc(OC(C)=O)c(OC(C)=O)cc2Br)C(=O)C1=O` (stereo partly drawn) [Example 10, Sodium 6,β-[D,L-2-(2-bromo-4,5-diacetoxyphenyl)-2-(2,3-dioxo-4-ethylpiperazin-1-ylcarbonylamino)acetamido]penicillanate] was 1 µg/mL.
On the same count and under the same terms, the same measure for `CCN1CCN(C(=O)N[C@@H](C(=O)N[C@@H]2C(=O)N3[C@@H]2SC(C)(C)[C@@H]3C(=O)O)c2cc(O)c(O)cc2F)C(=O)C1=O` [Example 11, Sodium 6,β-[D-2-(4,5-dihydroxy-2-fluorophenyl)-2-(2,3-dioxo-4-ethylpiperazin-1-ylcarbonylamino)acetamido]penicillanate]: 1 µg/mL.
